How the values were obtained:
Pim-2(h) = Pim-2(h) (Homo sapiens, UniProt Q9P1W9); experiment: Enzyme activity, ATP = Km, Pim-2(h); type: biochemical; conditions: 300 nM of compound, ATP concentration = Km
Panc-1 = experiment: Cell proliferation inhibition (MTS), Panc-1; type: cell-based, human; conditions: Panc-1, 72 h
Method: (§1) All cells were cultured in the media supplemented with 10% FBS in the temperature of 37° C., 5% CO2 and 95% humidity. All culture media were purchased from GIBCO.
(§2) • 1. Cells were harvested respectively during the logarithmic growth period and counted with hemocytometer. Cell viability was over 98% by trypan blue exclusion. • 2. Dilute cells with respective medium to achieve 1.11×10^5 cells/mL for LNCaP cells, 2.22×10^5 cells/mL for KU812 cells, 5.56×10^4 cells/mL for Panc-1 cells. • 3. Add 90 μL cell suspensions to 96-well plate, the final cell densities are 1×10^4 cells/well for LNCaP cells, 2×10^4 cells/well for KU812 cells, and […] cells/well for Panc-1 cells, respectively. • 4. The next day, dilute the test article or positive drugs with DMSO or PBS. • 5. Dispense 10 μL drug solution in each well (triplicate for each drug concentration). • 6. The plates were cultured for another 72 hours, then measured using MTS assay. • 7. Prepare MTS/PMS solution immediately prior to use, pipet 20 μL of the mixture into each well of the 96 well assay plate containing 100 μL culture medium. (The final reaction volume is 120 μL). • 8. Incubate the plate for 1-4 hours at 37° C. in a humidified, 5% CO2 atmosphere. • 9. Record the absorbance at 490 nm using Synergy2 Microplate Reader. Data Analysis:
(§3) The software of GraphPad Prism version 5 was used to calculate IC50. […]

CK1(y) = experiment: Enzyme activity, ATP = Km, CK1(y); type: biochemical, yeast; conditions: 300 nM of compound, ATP concentration = Km
CK1γ2(h) = CK1γ2(h) (Homo sapiens, UniProt P78368); experiment: Enzyme activity, ATP = Km, CK1γ2(h); type: biochemical; conditions: 300 nM of compound, ATP concentration = Km
CK1γ2(h), sequence (P78368 whole entry): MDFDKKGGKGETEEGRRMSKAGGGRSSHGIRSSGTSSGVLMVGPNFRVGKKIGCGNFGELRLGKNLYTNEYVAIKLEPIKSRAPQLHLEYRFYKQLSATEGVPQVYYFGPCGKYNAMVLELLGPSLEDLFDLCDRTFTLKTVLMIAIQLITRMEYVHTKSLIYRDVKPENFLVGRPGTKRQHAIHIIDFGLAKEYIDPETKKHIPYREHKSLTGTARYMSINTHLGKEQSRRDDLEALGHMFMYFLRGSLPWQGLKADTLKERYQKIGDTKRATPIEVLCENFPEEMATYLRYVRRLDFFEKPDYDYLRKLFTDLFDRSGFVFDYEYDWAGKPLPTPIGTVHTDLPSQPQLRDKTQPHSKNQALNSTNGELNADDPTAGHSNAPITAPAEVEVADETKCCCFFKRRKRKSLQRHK

Pim-1(h) = Pim-1(h) (Homo sapiens, UniProt P11309); experiment: Enzyme activity, ATP = Km, Pim-1(h); type: biochemical; conditions: 300 nM of compound, ATP concentration = Km
Pim-1(h), sequence (P11309 whole entry): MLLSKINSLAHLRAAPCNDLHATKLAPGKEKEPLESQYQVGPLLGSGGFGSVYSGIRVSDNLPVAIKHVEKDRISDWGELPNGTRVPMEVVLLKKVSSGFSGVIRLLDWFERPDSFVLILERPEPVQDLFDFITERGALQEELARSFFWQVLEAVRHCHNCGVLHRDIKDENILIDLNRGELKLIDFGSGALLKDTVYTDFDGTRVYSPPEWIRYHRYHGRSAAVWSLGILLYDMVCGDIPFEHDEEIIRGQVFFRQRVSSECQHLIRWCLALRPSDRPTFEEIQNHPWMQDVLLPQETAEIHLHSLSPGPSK

CK2(h) = CK2(h) (Homo sapiens, UniProt P68400); experiment: Enzyme activity, ATP = Km, CK2(h); type: biochemical; conditions: 300 nM of compound, ATP concentration = Km
CK2(h), sequence (P68400 whole entry): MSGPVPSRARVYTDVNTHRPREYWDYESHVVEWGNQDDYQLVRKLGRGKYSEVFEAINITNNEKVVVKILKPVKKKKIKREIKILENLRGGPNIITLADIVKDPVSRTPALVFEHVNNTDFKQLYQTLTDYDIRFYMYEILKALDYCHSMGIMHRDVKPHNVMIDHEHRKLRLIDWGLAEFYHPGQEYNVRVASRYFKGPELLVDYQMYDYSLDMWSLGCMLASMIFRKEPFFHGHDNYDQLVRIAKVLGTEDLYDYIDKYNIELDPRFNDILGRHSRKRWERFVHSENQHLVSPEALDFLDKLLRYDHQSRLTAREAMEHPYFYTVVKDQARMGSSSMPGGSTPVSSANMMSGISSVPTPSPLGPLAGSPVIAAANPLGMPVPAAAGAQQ
CK2(h), sequence (P67870 whole entry partner): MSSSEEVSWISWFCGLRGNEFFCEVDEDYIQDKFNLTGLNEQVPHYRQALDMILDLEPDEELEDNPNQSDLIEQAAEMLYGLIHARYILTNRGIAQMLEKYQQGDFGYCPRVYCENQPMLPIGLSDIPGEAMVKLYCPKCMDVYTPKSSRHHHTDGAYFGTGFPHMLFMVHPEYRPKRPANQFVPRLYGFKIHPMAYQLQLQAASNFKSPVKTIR

NCI-H929 = experiment: Cell proliferation inhibition (MTS), NCI-H929; type: cell-based, human; conditions: NCI-H929, 72 hours
Method: (§4) All cells were cultured in media supplemented with 10% FBS except for which are marked specially, in the temperature of 37° C., 5% CO2 and 95% humidity. All culture media were purchased from GIBCO (USA, IMDM Cat. 12200-036; RPMI Medium 1640 Cat. 31800-022; 2-mercaptoethanol Cat. 21985-023).
(§5) • 1. The cells were harvested respectively during the logarithmic growth period and counted with hemocytometer. The cell viability was over 98% by trypan blue exclusion. • 2. Cell concentrations were adjusted to 2.22×10^5 or 1.11×10^5 or 5.56×10^4 cells/mL with respective medium. • 3. 90 μL cell suspensions were added to 96-well plates (triplicates for each cell concentration), the final cell densities were 2×10^4 or 1×10^4 or 5×10^3 cells/well. The density of 5×10^3 cells/well was used for the first test. The appropriate cell density was determined and adjusted according to the results of the first test. • 4. The next day, test article or positive drugs were dissolved with DMSO as stock solution at the concentration of 20 mM. • 5. 10 μL drug solution was dispensed in each well (triplicate for each drug concentration). • 6. Plates were cultured for another 72 hours, then measured by means of MTS assay. • 7. MTS/PMS solution was prepared immediately prior to use. […] Absorbance at 490 nm was recorded using SpectraMAX Plus microplate spectrophotometer. […]

Pim-3(h) = Pim-3(h) (Homo sapiens, UniProt Q86V86); experiment: Enzyme activity, ATP = Km, Pim-3(h); type: biochemical; conditions: 300 nM of compound, ATP concentration = Km
RPMI-8226 = experiment: Cell proliferation inhibition (MTS), RPMI-8226; type: cell-based, human; conditions: RPMI 8226, 72 hours
Method: as §4, §5

KU812 = experiment: Cell proliferation inhibition (MTS), KU812; type: cell-based, human; conditions: KU812, 72 h
Method: as §1, §2, §3

Pim-2(h), sequence (Q9P1W9 whole entry): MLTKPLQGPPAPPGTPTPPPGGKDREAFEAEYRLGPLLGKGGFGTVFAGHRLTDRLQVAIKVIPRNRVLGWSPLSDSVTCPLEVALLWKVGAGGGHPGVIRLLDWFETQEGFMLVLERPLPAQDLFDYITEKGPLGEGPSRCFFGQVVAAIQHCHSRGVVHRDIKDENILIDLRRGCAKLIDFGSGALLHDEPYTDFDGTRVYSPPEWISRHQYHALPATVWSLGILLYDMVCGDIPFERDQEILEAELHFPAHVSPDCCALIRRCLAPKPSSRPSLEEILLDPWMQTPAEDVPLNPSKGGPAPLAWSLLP

In the case of NCC1CCN(c2cc(/C=C3\SC(=O)NC3=O)ncn2)CC1 [Compound 11268], the “Percent Activity of Enzyme Pim-2(h)” value (Pim-2(h)) is reported as 108%, the IC50 (Panc-1) is reported as greater than 30 µM and the “Percent Activity of Enzyme CK1(y)” value (CK1(y)) is reported as 114%. The “Percent Activity of Enzyme CK1γ2(h)” value (CK1γ2(h)) was 95%, the “Percent Activity of Enzyme Pim-1(h)” value (Pim-1(h)) was 115% and the “Percent Activity of Enzyme CK2(h)” value (CK2(h)) was 85%. The IC50 (NCI-H929) was greater than 30 µM, the “Percent Activity of Enzyme Pim-3(h)” value (Pim-3(h)) was 80% and the IC50 (RPMI-8226) was greater than 30 µM. It also gave an IC50 (KU812) greater than 30 µM.

From US8901145B2, “Aminopyrimidine kinase inhibitors” (Jasco Pharmaceuticals, LLC, priority 2011, dated 2014)
